One experiment relates to Del19/T790M/C797S EGFR. The experiment is described as follows: EGFR degradation HTRF assay in H1975-clone #28 (DTC) cells. The class given is cell-based. To be noted: H1975 # 28 DTC (Del19/T790M/C797S), 16h treatment; for DC50: HTRF; for Dmax (%): maximum percentage of degradation. The method in brief:
(§1)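 H1975 clones stably overexpressing mutant EGFR by lentivirus, with endogenous EGFR knocked out by sgRNA and homozygosity confirmed by sequencing, were treated 16 h at 37 °C with compounds in 0.2% DMSO medium, 8 doses from 10 uM in 5-fold dilution. Lysates were read by HTRF (665/620 nm); DC50 came from a four-parameter fit.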
(In general: TR-FRET usually uses a lanthanide donor and a delayed reading to cut background.)

Another experiment addresses T1, L858R/T790M/C797S EGFR (Homo sapiens, UniProt P00533, C797S/L858R/T790M).
T1 construct: expressed in transfected cells; host or cells: H1975 clone #25 (lentiviral over-expression, endogenous EGFR knocked out by sgRNA)
As to the kind of experiment: EGFR degradation HTRF assay in H1975-clone #25 (LTC) cells. The class given is cell-based. To be noted: 16h treatment; for DC50: H1975 # 25-LTC (L858R/T790M/C797S), HTRF; for Dmax: NCI-H1975, H1975 # 25-LTC (L858R/T790M/C797S), maximum percentage of degradation. The method in brief: as §1

T1 sequence (P00533 25-1210 T790M/C797S/L858R): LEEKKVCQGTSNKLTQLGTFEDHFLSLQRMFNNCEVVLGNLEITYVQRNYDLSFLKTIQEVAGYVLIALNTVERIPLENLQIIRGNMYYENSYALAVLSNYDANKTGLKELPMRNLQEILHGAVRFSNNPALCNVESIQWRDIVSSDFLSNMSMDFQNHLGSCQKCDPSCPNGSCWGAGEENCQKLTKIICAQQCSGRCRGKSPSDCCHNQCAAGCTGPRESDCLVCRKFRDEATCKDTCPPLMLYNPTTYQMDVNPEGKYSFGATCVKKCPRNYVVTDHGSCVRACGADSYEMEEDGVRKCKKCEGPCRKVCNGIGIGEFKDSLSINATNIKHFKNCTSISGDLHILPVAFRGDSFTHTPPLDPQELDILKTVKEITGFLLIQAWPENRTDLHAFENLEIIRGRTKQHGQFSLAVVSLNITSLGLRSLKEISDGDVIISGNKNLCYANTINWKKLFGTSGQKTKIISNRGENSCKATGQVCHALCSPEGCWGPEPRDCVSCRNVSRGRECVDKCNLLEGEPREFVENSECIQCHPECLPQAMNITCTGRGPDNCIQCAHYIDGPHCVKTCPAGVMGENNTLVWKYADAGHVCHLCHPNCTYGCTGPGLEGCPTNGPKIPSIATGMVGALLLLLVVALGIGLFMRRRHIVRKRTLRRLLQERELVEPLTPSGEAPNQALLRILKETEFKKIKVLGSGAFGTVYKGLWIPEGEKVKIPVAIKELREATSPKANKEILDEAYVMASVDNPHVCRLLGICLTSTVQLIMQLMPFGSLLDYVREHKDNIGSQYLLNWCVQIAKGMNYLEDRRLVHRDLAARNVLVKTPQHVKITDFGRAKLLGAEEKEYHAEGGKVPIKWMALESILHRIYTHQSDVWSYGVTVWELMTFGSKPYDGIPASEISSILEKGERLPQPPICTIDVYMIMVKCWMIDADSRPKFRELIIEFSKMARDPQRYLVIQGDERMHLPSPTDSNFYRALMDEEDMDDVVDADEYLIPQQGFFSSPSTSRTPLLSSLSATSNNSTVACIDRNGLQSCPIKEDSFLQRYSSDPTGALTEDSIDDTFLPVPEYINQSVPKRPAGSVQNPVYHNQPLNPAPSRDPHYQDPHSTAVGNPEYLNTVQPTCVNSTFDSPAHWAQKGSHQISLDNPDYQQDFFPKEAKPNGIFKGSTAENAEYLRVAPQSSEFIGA

For `Cc1cc2cc(n1)-c1cnn(C)c1OCCC[C@@H](C)CN1/C(=N/C2=O)Nc2ccc(N3CCN(C4CCN(c5cnc([C@H]6CCC(=O)NC6=O)c(F)c5)CC4)CC3=O)cc21` (single isomer, unassigned) [Example 460], in the experiment on Del19/T790M/C797S EGFR, it took 0.629 nM to reach half-maximal degradation (DC50) and the “Dmax (%)” value amounted to 75.27%. For the same compound, on L858R/T790M/C797S EGFR, the DC50 worked out at 0.431 nM and the maximal degradation (Dmax) turned out to be 89.6%.
Taken in the same sequence, the figures for `COC[C@@H]1CN(c2ccc3c(c2)N2C[C@H]4C[C@@H]4CCOc4c(cnn4C)-c4cc(cc(C)n4)C(=O)/N=C/2N3)CCN1C1CCN(c2cc(F)c([C@H]3CCC(=O)NC3=O)c(F)c2)CC1` [Example 468, (R)-3-(4-(4-((S)-4-((7'S,7^2R,E)-1^1,2^6-dimethyl-3-oxo-5^2,5^3-dihydro-1^1H,5^1H-10-oxa-4-aza-5(2,1)-benzo[d]imidazola-2(2,4)-pyridina-1(4,5)-pyrazola-7(1,2)-cyclopropanacyclodecaphane-5^6-yl)-2-(methoxymethyl)piperazin-1-yl)piperidin-1-yl)-2,6-difluorophenyl)piperidine-2,6-dione] were 2.25 nM, 85.54%, 2.12 nM and 88.1%.
Taken in the same sequence, the figures for `Cc1cc2cc(n1)-c1cnn(C)c1OCCC[C@@H](C)CN1/C(=N/C2=O)Nc2ccc(C(=O)NC3CCN(CCc4cc(F)c([C@H]5CCC(=O)NC5=O)c(F)c4)CC3)cc21` [Example 242, (R,E)-N-(1-(4-((R)-2,6-dioxopiperidn-3-yl)-3,5-difluorophenethyl)piperidin-4-yl)-1^1,2^6,7-trimethyl-3-oxo-5^2,5′-dihydro-1^1H,5^1H-li-oxa-4-aza-5(2,1)-benzo[d]imidazola-2(2,4)-pyridina-1(4,5)-pyrazolacycloundecaphane-5^6-carboxamide] were 0.352 nM, 88.18%, 0.321 nM and 93.2%.
In the case of `Cc1cc2cc(n1)-c1cnn(C)c1OCCC[C@@H](C)CN1/C(=N/C2=O)Nc2ccc(C(=O)N(C)C[C@H]3CCCN(CCc4cc(F)c([C@H]5CCC(=O)NC5=O)c(F)c4)C3)cc21` [Example 276, (R,E)-N—(((S)-1-(4-((R)-2,6-dioxopiperidin-3-yl)-3,5-difluorophenethyl)piperidin-3-yl)methyl)-N,1^1, 2^6,7-tetramethyl-3-oxo-5^2,5^3-dihydro-1^1H,5^1H-11-oxa-4-aza-5(2,1)-benzo[d]imidazola-2(2,4)-pyridina-1(4,5)-pyrazolacycloundecaphane-5^6-carboxamide], in the experiment with Del19/T790M/C797S EGFR, the half-maximal degradation concentration (DC50) is 1.74 nM and the “Dmax (%)” value is 71.19%. At L858R/T790M/C797S EGFR, this compound displayed a half-maximal degradation concentration (DC50) of 0.592 nM and a Dmax of 88%.
In the case of `COCc1cc2c(cc1N1CCN(C3CCN(c4cc(F)c([C@H]5CCC(=O)NC5=O)c(F)c4)CC3)CC1)N1C[C@H](C)CCCOc3c(cnn3C)-c3cc(cc(C)n3)C(=O)/N=C/1N2` [Example 390, (R)-3-(2,6-difluoro-4-(4-(4-((R,E)-5^5-(methoxymethyl)-1^1,2^6,7-trimethyl-3-oxo-5^2,5^3-dihydro-1^1H,5^1H-11-oxa-4-aza-5(2,1)-benzo[d]imidazola-2(2,4)-pyridina-1(4,5)-pyrazolacycloundecaphane-5^6-yl)piperazin-1-yl)piperidin-1-yl)phenyl)piperidine-2,6-dione], in the experiment with Del19/T790M/C797S EGFR, the 50% degradation concentration (DC50) was 1.69 nM and the “Dmax (%)” value came to 73.87%. At L858R/T790M/C797S EGFR, this compound came in with a DC50 of 2.49 nM and a Dmax of 87.7%.
The corresponding values for `Cc1cc2cc(n1)-c1cnn(C)c1OCCC[C@@H](C)CN1/C(=N/C2=O)Nc2ccc(N3CCN(C4CCN(c5ccc(C6CCC(=O)NC6=O)nc5C)CC4)[C@@H](CC#N)C3)cc21` (stereo partly drawn) [Example 456, 2-((2S)-1-(1-(6-(2,6-dioxopiperidin-3-yl)-2-methylpyridin-3-yl)piperidin-4-yl)-4-((R,E)-1^1,2^6,7-trimethyl-3-oxo-5^2,5^3-dihydro-1^1H,5^1H-11-oxa-4-aza-5(2,1)-benzo[d]imidazola-2(2,4)-pyridina-1(4,5)-pyrazolacycloundecaphane-5^6-yl)piperazin-2-yl)acetonitrile] are 0.542 nM, 84.5%, 0.676 nM and 93.2%.
For `Cc1cc2cc(n1)-c1cnn(C)c1OCCC[C@@H](C)CN1/C(=N/C2=O)Nc2ccc(C(=O)N(C)C3CCN(CCc4cccc5c4oc(=O)n5C4CCC(=O)NC4=O)CC3)cc21` (stereo partly drawn) [Example 315, (7R,E)-N-(1-(2-(3-(2,6-dioxopiperidin-3-yl)-2-oxo-2,3-dihydrobenzo[d]oxazol-7-yl)ethyl)piperidin-4-yl)-N,1^1,2,7-tetramethyl-3-oxo-5^2,5^3-dihydro-1^1H,5^1H-11-oxa-4-aza-5(2,1)-benzo[d]imidazola-2(2,4)-pyridina-1(4,5)-pyrazolacycloundecaphane-5^6-carboxamide], in the experiment on Del19/T790M/C797S EGFR, it took 3.18 nM to reach half-maximal degradation (DC50) and the “Dmax (%)” value was determined as 63.86%. In addition, at L858R/T790M/C797S EGFR, the DC50 was 1.37 nM and the greatest degradation seen (Dmax) was 80.5%.
The corresponding values for `Cc1cc2cc(n1)-c1cnn(C)c1OCCC[C@@H](C)CN1/C(=N/C2=O)Nc2ccc(C(=O)N(C)CCCCc3cc(F)c([C@H]4CCC(=O)NC4=O)c(F)c3)cc21` [Example 339, (R,E)-N-(4-(4-((R)-2,6-dioxopiperidin-3-yl)-3,5-difluorophenyl)butyl)-N,1^1,2^6,7-tetramethyl-3-oxo-5^2,5^3-dihydro-1^1H,5^1H-11-oxa-4-aza-5(2,1)-benzo[d]imidazola-2(2,4)-pyridina-1(4,5)-pyrazolacycloundecaphane-5^6-carboxamide] are 0.671 nM, 70.76%, 0.865 nM and 80.3%.
Consider `Cc1cc2cc(n1)-c1cnn(C)c1OCC[C@@H]1C[C@H]1CN1/C(=N/C2=O)Nc2ccc(N3CCN(C4CCN(c5cc(F)c([C@H]6CCC(=O)NC6=O)c(F)c5)CC4)CC3)cc21` [Example 441, (R)-3-(4-(4-(4-((7′R,7^2S,E)-1^1,2^6-dimethyl-3-oxo-5^2,5^3-dihydro-1^1H,5^1H-10-oxa-4-aza-5(2,1)-benzo[d]imidazola-2(2,4)-pyridina-1(4,5)-pyrazola-7(1,2)-cyclopropanacyclodecaphane-5^6-yl)piperazin-1-yl)piperidin-1-yl)-2,6-difluorophenyl)piperidine-2,6-dione], for which, in the experiment on Del19/T790M/C797S EGFR, the 50% degradation concentration (DC50) was 0.643 nM and the “Dmax (%)” value came to 89.27%. Besides, on L858R/T790M/C797S EGFR, it took 0.857 nM to reach half-maximal degradation (DC50) and the greatest degradation seen (Dmax) is 89.2%.
Taken in the same sequence, the figures for `Cc1cc2cc(n1)-c1cnn(C)c1OCCC[C@@H](C)CN1/C(=N/C2=O)Nc2ccc(C(=O)N(C)CCN3CCN(c4cc(F)c([C@H]5CCC(=O)NC5=O)c(F)c4)CC3)cc21` [Example 280, (R,E)-N-(2-(4-(4-((R)-2,6-dioxopiperidin-3-yl)-3,5-difluorophenyl)piperazin-1-yl)ethyl)-N,1^1,2^6,7-tetramethyl-3-oxo-5^2,5^3-dihydro-1^1H,5^1H-11-oxa-4-aza-5(2,1)-benzo[d]imidazola-2(2,4)-pyridina-1(4,5)-pyrazolacycloundecaphane-5^6-carboxyamide] were 0.657 nM, 77.24%, 0.44 nM and 88.5%.
Taken in the same sequence, the figures for `Cc1cc2cc(n1)-c1cnn(C)c1OCCC[C@@H](C)CN1/C(=N/C2=O)Nc2ccc(C(=O)N(C)C3CCN(C4CCN(c5cc(F)c([C@H]6CCC(=O)NC6=O)c(F)c5)CC4)CC3)cc21` [Example 289, (R,E)-N-(1′-(4-((R)-2,6-dioxopiperidin-3-yl)-3,5-difluorophenyl)-[1,4′-bipiperidin]-4-yl)-N,1^1,2^6,7-tetramethyl-3-oxo-5^2,5^3-dihydro-1^1H,5^1H-11-oxa-4-aza-5(2,1)-benzo[d]imidazola-2(2,4)-pyridina-1(4,5)-pyrazolacycloundecaphane-5^6-carboxamide] were 0.624 nM, 91.07%, 0.454 nM and 93.8%.
The corresponding values for `Cc1cc2cc(n1)-c1cnn(C)c1OCC[C@H]1C[C@@H]1CN1/C(=N/C2=O)Nc2ccc(N3CCC(N4CCN(c5cc(F)c([C@H]6CCC(=O)NC6=O)c(F)c5)CC4=O)CC3)cc21` [Example 458, (R)-3-(4-(4-(1-((7'S,7^2R,E)-1^1,2^6-dimethyl-3-oxo-5^2,5^3-dihydro-1^1H,5^1H-10-oxa-4-aza-5(2,1)-benzo[d]imidazola-2(2,4)-pyridina-1(4,5)-pyrazola-7(1,2)-cyclopropanacyclodecaphane-5^6-yl)piperidin-4-yl)-3-oxopiperazin-1-yl)-2,6-difluorophenyl)piperidine-2,6-dione] are 0.985 nM, 92.47%, 0.809 nM and 92.7%.
For `Cc1cc2cc(n1)-c1cnn(C)c1OCCC1CC1CN1/C(=N/C2=O)Nc2ccc(C(=O)N(C)C3CCN(CCc4cc(F)c([C@H]5CCC(=O)NC5=O)c(F)c4)CC3)cc21` (stereo partly drawn) [Example 234, (E)-N-(1-(4-((R)-2,6-dioxopiperidin-3-yl)-3,5-difluorophenethyl)piperidin-4-yl)-N,1^1,2^6-trimethyl-3-oxo-5^2,5^3-dihydro-1^1H,5^1H-10-oxa-4-aza-5(2,1)-benzo[d]imidazola-2(2,4)-pyridina-1(4,5)-pyrazola-7(1,2)-cyclopropanacyclodecaphane-5^6-carboxamide], in the experiment on Del19/T790M/C797S EGFR, half-maximal degradation (DC50) was put at 0.637 nM and the “Dmax (%)” value is reported as 85.75%. At L858R/T790M/C797S EGFR, this compound returned a DC50 of 1.09 nM and a Dmax of 90.1%.

A word on the DC50: it is the concentration giving 50% degradation. High values mean a less potent degrader, low ones a more potent degrader. As usually defined, the Dmax is the greatest extent of degradation seen. A low value points to shallow degradation.

The record behind these values is patent US20240342292A1, “Compounds for the Degradation of EGFR Kinase” (BeiGene Switzerland GmbH, priority 2021, published 2024).
